Patent US10136645B2, “Antimicrobial composition” (MicroBio Solutions Inc., priority 2015, dated 2018)

Experiments:
[1] = tested on: E. coli on raw chicken piece; assay: Efficacy and residual growth inhibition on inoculated raw chicken pieces; format: cell-based
Source text: In the following example it is shown the residual effect of a combination of LAE/H2O2 compared with peracetic acid (PAA). The peracetic acid is often used in the food industry to sanitize food (fruit, vegetables, meat and poultry). The peracetic acid has a strong odor, is highly reactive and unstable when diluted and its use is limited to 80 ppm on food in the majority of countries worldwide regulation (e.g. US-FDA regulation 21CFR). For this example a solution of 200 ppm of lauric arginate with 1000 ppm of hydrogen peroxide is prepared and acidified to pH 2.5 using citric acid. The peracetic acid used is provided by Sigma-Aldrich.
Raw chicken pieces of the same size and weight are first soaked in an inoculating solution containing E. coli and incubated 30 minutes at 30° C. to allow the adhesion of bacteria on the surfaces of the sample. All samples are then soaked in a disinfectant solution (LAE/H2O2 or PAA) or a control (water) for a period of 30 seconds followed by a drying period drip for 2 minutes. Three replicates were completed per treatment. After the treatment, the samples were submerged in a neutralizing growth medium (D/E Neutralizing Broth) to analyze the populations of E. coli after the treatment or stored at room temperature in a sterile bags 24 hours before analyzed for populations of E. coli.

[2] = tested on: Bacillus subtilis (ATCC#19659) spores; assay: Sporicidal activity, quantitative suspension test EN 13704:2002; format: cell-based
Procedure: The sporicidal activity of a given product is defined by its capacity to reduce at least by 3 log (cfu/ml) the amount of Bacillus subtilis bacterial spores in suspension, in the conditions established in the method.
The test organism in the form of a test suspension was prepared containing endospores from Bacillus subtilis (ATCC#19659). The endospores were specifically prepared from a culture grown on Nutrient agar, to which additional sporulation enhancements were added. Plates were harvested with sterile water and endospores were purified by repeated centrifugations and resuspensions in water. The final wash was in 70% w/w ethanol for 30 minutes, to ensure the death of all vegetative bacteria.

[3] = animal toxicological studies; cited from earlier work
E. coli [4] = assay: Minimal bactericidal concentration (MBC) at 30 sec. contact time; format: cell-based; conditions: alone or in blend, 10^6 to 10^7 cfu/ml
Procedure: (§1) The antimicrobial effectiveness of the compositions of the present invention was tested. In this experiment, the test organism was E. coli and the final bacterial concentrations was 10^6 to 10^7 cfu/ml. Inoculum was contacted with either the combinations of LAE/H2O2 or individual, at different active concentration levels for a contact time of 30 seconds or more. The aliquots of this contaminated solution is used for determinate the minimal bactericidal concentration (MBC) for kill bacteria in the aliquots at 30 sec. contact time. Table 1 summarizes the efficacy of each biocide and their blends, and the Synergy index of each combination. In the same condition the minimal bactericidal time (MBT) was also evaluate with a combination of LAE:H2O2 (1:10) at different contact time. The table 2 summarizes the minimal bactericidal time for each biocide and a blend.

E. coli [5] = assay: Minimal bactericidal time (MBT) at different contact times; format: cell-based; conditions: 1000 active ppm H2O2 alone
Procedure: as §1

B. subtilis spore = assay: Spore germination inhibition in TSB with low concentration solution; format: cell-based, Bacillus subtilis; conditions: low concentration solution (1:200 dilution); 30° C., 72 hours, visible growth
Procedure: The spore contaminated media culture was then incubated at 30° C. for 72 hours for detect the germination of the spore by the presence of a visually detectable growth. Three replicates were completed per treatment.

Compound: CC(=O)OO [PAA, peracetic acid]
- Average Log10 cfu/sample 2 min. after treatment ([1]; 30 seconds soak, 2 min drip drying, LAE/H2O2 200/1000 ppm pH 2.5): 0.56 Log10 cfu/sample
- Log10 reduction vs control 2 min. after treatment ([1]; 30 seconds soak, LAE/H2O2 200/1000 ppm pH 2.5, PAA 80 ppm): 3.81 Log10
- Average Log10 cfu/sample 24 hours after treatment ([1]; stored 24 hours at room temperature, LAE/H2O2 200/1000 ppm, PAA 80 ppm): 2.51 Log10 cfu/sample

Compound: CCCCCCCCCCCC(=O)N[C@@H](CCCN=C(N)N)C(=O)OCC [LAE, Lauric arginate ethyl ester]
- sporicidal activity ([2]; LAE alone, result not shown): no significant difference with the control
- systemic No Observable Adverse Effect Levels (NOAEL) [3]: 15,000 mg/L
- MBC (active ppm) H2O2 (E. coli [4]; H2O2 concentration for complete kill): 5000 active ppm
- MBC (active ppm) LAE (E. coli [4]; LAE concentration for complete kill): >350 active ppm

Compound: OO [Example H2O2, hydrogen peroxide]
- Average Log 10 cfu/ml reduction after 10 minutes contact time ([2]; high concentration treatment solution (10% H2O2)): >3 Log 10 cfu/ml
- MBT (E. coli [5]): >5 min
- Spore germination inhibition activity (B. subtilis spore): No inhibition
